Reference: patent US20230232831A1, “MONOTERPENOID AND PHENYLPROPANOID CARBONATE ESTERS AND METHODS OF THEIR MAKING AND USE AS REPELLENTS” (IOWA STATE UNIVERSITY RESEARCH FOUNDATION, INC., priority 2020, published 2023)
Entries after “also recorded” stand apart in the source; their conditions may differ.

Key:
Assay type in all cases: in vivo
[1] = system: Culex pipiens; test: Short-term spatial repellency, static air chamber; settings: short-term assay, 1 mL of 0.5% solution, dried 15 minutes
[2] = system: Culex pipiens; test: Short-term spatial repellency, static air chamber; settings: for short-term repellency (result in words): 1 mL of 0.5% solution on filter paper, 15-150 min
Method: FIG. 4 is a graph showing the repellency observed when 1 mL of a 0.5% solution of each compound was applied to a filter paper, dried for 15 minutes, and placed at the treated end of the repellency chamber. FIG. 6 is a graph showing repellency of various compounds against the mosquito species Culex pipiens observed when 1 mL of a 0.5% solution of each compound was applied to a filter paper, dried for 15 minutes, and placed at the treated end of the repellency chamber. The static air chamber used for the repellency assay has been described previously (Klimavicz et al., “Monoterpenoid Isovalerate Esters as Long-lasting Spatial Mosquito Repellents,” In Advances in the Biorational Control of Medicaland Veterinary Pests, American Chemical Society: 2018; Vol. 1289, pp 205-217; Peterson et al., “Identification of Components of Osage Orange Fruit (Maclura pomifera) and Their Repellency to German Cockroaches,” J. Essent. Oil Res. 14:233-236 (2002), which are hereby incorporated by reference in their entirety). For each assay run, a 90-mm Whatman No. 1 filter paper was treated with 1 mL acetone solution containing 0.5% w/v of a carbonate ester. The filter paper was supported upon several pins during the addition of the acetone solution to diminish wicking of the solution away from the filter paper, and the solution was added over approximately thirty seconds to allow acetone to evaporate during the addition to prevent dripping. After the addition of the solution was complete, remaining acetone was permitted to evaporate for […] before testing. A 600-mm-long clear glass cylinder with an inner diameter of 85 mm and a single hole (20 mm diameter) halfway along the side of the cylinder was used for the repellency chamber. One end of the chamber was capped with a glass petri dish (inner diameter 90 mm) containing an untreated 90-mm Whatman No. 1 filter paper, while the other end was likewise covered with a similar petri dish containing the treated filter paper. Immediately after capping both ends of the chamber, 20 non-blood-fed female Culex pipiens mosquitoes were anesthetized with carbon dioxide, and placed into the repellency chamber through the hole in the side of the cylinder via a funnel. The hole was sealed, and the number of mosquitoes on the treated and untreated halves were recorded at 15, 30, 60, 90, 120, and 150 minutes after introduction of the mosquitoes to the chamber. All statistical analysis was performed in R. To determine repellency of a given compound, the number of repelled mosquitoes and the total number of mosquitos the chamber for each trial at a given time point were fit to a beta-binomial distribution to account for overdispersion in the estimated repellency. Because percentage repellency is bound between -100% (completely attracting) and 100% (completely repelling), percentage repellency shown with error bars representing 50% confidence intervals determined from a non-chance-corrected beta-binomial fit to the data, using an inverse link function equal to the psychometric function for the duo-trio test. Statistical significance was determined by nonoverlap of these confidence intervals. Estimates of the proportion of mosquitoes repelled in the chamber was then transformed to percentage repellency, which is expressed as […]

[3] = system: Culex pipiens; test: Long-term repellency, treated filter paper placed in chamber 5 hours after application; settings: filter paper placed 5 hours after compound was applied
Method: FIG. 5 is a graph showing the repellency observed when 1 mL of each compound was applied to a filter paper placed at the treated end of the repellency chamber 5 hours after compound was applied. FIG. 8 is a graph showing the repellency of various compounds observed when 1 mL of each compound was applied to a filter paper placed at the treated end of the repellency chamber 5 hours after compound was applied. An array of older and newly synthesized carbonates was chosen and tested for repellency activity. Six compounds were screened according to long-term repellency assays and three compounds were screened according to short-term repellency assays. These assays were all conducted using Culex pipiens mosquitoes. The compounds tested are illustrated in Table 1. An array of carbonates was chosen and tested for repellency activity. Some compounds were screened according to long-term repellency assays and some compounds were screened according to short-term repellency assays. These assays were conducted using Culex pipiens mosquitoes or Aedes aegypti mosquitoes.

Structure (SMILES)	short-term repellency (result in words) [2]	other results
COC(=O)Oc1cc(C)ccc1C(C)C [Compound 4249, Thymyl methyl carbonate]		mortality seen in the repellency chamber [1]: significant mortality
CC(C)=CCCC(C)CCOC(=O)OC(C)C (stereo not shown) [Compound 1c, Citronellyl isopropyl carbonate]	numerically, but not statistically, less repellent than 1a	
CC(C)=CCCC(C)CCOC(=O)Oc1ccccc1 (stereo not shown) [Compound 1f, Citronellyl phenyl carbonate]	weakest repellent effect	
CCOC(=O)Oc1cc(C)ccc1C(C)C [Compound 2a, Ethyl thymyl carbonate]	final estimated repellency was approximately the same	short-term repellency (result in words) ([2]; listed as Ethyl thymyl carbonate): excellent short-term repellent
CC(C)=CCCC(C)CCOC(=O)OCC(C)C (stereo not shown) [Compound 1d, Citronellyl isobutyl carbonate]	numerically, but not statistically, less repellent than 1a	
COC(=O)OCCC(C)CCC=C(C)C (stereo not shown) [Compound 1b, Citronellyl methyl carbonate]	numerically, but not statistically, less repellent than 1a	
CCOC(=O)OC1C=C(C)C2CC1C2(C)C (stereo not shown) [Compound 4251, Verbenyl ethyl carbonate]		mortality seen in the repellency chamber [1]: Very minimal amounts of mortality
Cc1ccc(C(C)C)c(OC(=O)OCC(C)C)c1 [Compound 2d, Isobutyl thymyl carbonate]	slower onset of high repellency; also recorded: final estimated repellency was approximately the same	
CCOC(=O)OCCC(C)CCC=C(C)C (stereo not shown) [Compound 1a, Citronellyl ethyl carbonate]	numerically superior out of all the citronellyl carbonates	mosquitoes repelled in short-term repellency assay ([2]; 1 mL of 0.5% w/v acetone solution on filter paper, assay extending out to 2.5 hours): approximately 90%
C=C(C)C1CCC(C)CC1OC(=O)OCC (stereo not shown) [Compound 3a, Ethyl isopulegyl carbonate]		long-term repellency (result in words) [3]: not able to repel mosquitoes very well at all
CCOC(=O)OC1CC2CCC1(C)C2(C)C (stereo not shown) [Compound 7a, Bornyl ethyl carbonate]	only modest repellency	
